Experimental data reported in article doi:10.1101/525329v1, “The large loop-8 insert in Saccharomyces cerevisiae kinesin-5 Cin8 is necessary and sufficient to promote noncanonical microtubule interactions” (biorxiv, 2019).

Legend:
Assay in all cases: NADH-coupled steady-state ATPase assay
Eg5-CL8 = system: T1, Eg5-CL8; assay type: biochemical, Homo sapiens; details: low ionic strength (7.5 mM KCl, 21 mM IS), 2 μM paclitaxel-stabilized bovine microtubules, 2 mM MgCl2, pH 7.2, 298 K; kcat from microtubule-dependent fit at 1 mM ATP
T1 construct: gene KIF11; monomeric Eg5 motor domain with 99-residue Cin8 loop-8 insert; bacterial expression, pET16b

Eg5-KL8 = system: T2, Eg5-KL8; assay type: biochemical, Homo sapiens; details: high ionic strength (75 mM KCl, 88 mM IS), 10 μM paclitaxel-stabilized bovine microtubules, 2 mM MgCl2, pH 7.2, 298 K; kcat from microtubule-dependent fit; read-out: Km,ATP
T2 construct: gene KIF11; monomeric Eg5 motor domain with Kip1 loop-8 insert; bacterial expression, pET16b

Cin8-EL8 = system: T3, Cin8-EL8; assay type: biochemical, Saccharomyces cerevisiae; details: low ionic strength (7.5 mM KCl, 21 mM IS), 5 μM paclitaxel-stabilized bovine microtubules, 2 mM MgCl2, pH 7.2, 298 K; kcat from microtubule-dependent fit; read-out: Km,ATP
T3 construct: monomeric Cin8 motor domain with Eg5 loop-8 insert; bacterial expression, pET32b

Nc1ncnc2c1ncn2[C@@H]1O[C@H](COP(=O)(O)OP(=O)(O)OP(=O)(O)O)[C@@H](O)[C@H]1O [ATP]
Km (Eg5-CL8): 40 ± 11 µM
Km (Eg5-KL8): 16 ± 4 µM
Km (Cin8-EL8): 39 ± 7 µM
